Data reported in ChEMBL document CHEMBL1201862, “PubChem BioAssay data set” (2004).
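Briefly, cells in 96-well plates were exposed to five compound concentrations for 48 h, and endpoints were estimated by linear interpolation. Abbreviation: GI50, concentration required for 50% inhibition of growth.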 Calls of active or inactive are those of the source. Rule as the data show it: active = GI50 up to about 1.1 µM and inactive = higher.

Legend:
Experiment in all cases: NCI anticancer screen, dose series, 48 h
CAKI-1 = system: CAKI-1
KM12 = system: KM12
SNB-75 = system: SNB-75
UACC-62 = system: UACC-62
NCI-H460 = system: NCI-H460
MDA-MB-231 = system: MDA-MB-231
OVCAR-3 = system: OVCAR-3
A498 = system: A498
NCI-H226 = system: NCI-H226
M14 = system: M14
HCC 2998 = system: HCC 2998
SN12C = system: SN12C
Malme-3M = system: Malme-3M
SK-OV-3 = system: SK-OV-3
SNB-19 = system: SNB-19
Hs-578T = system: Hs-578T
HT-29 = system: HT-29
MCF7 = system: MCF7
COLO 205 = system: COLO 205
NCI-H23 = system: NCI-H23
U-251 = system: U-251
NCI/ADR-RES = system: NCI/ADR-RES
UO-31 = system: UO-31
PC-3 = system: PC-3
HOP-92 = system: HOP-92
MOLT-4 = system: MOLT-4
SK-MEL-2 = system: SK-MEL-2
RXF 393 = system: RXF 393
T47D = system: T47D
SK-MEL-28 = system: SK-MEL-28
DU-145 = system: DU-145
CCRF-CEM = system: CCRF-CEM
OVCAR-5 = system: OVCAR-5
NCI-H522 = system: NCI-H522
SF-295 = system: SF-295
SR = system: SR
RPMI-8226 = system: RPMI-8226
HOP-62 = system: HOP-62
MDA-MB-435 = system: MDA-MB-435
HL-60 = system: HL-60
MDA-N = system: MDA-N
K562 = system: K562
SK-MEL-5 = system: SK-MEL-5
HCT-15 = system: HCT-15
IGROV-1 = system: IGROV-1
OVCAR-8 = system: OVCAR-8
BT-549 = system: BT-549
OVCAR-4 = system: OVCAR-4
SF-268 = system: SF-268
ACHN = system: ACHN
HCT-116 = system: HCT-116
TK-10 = system: TK-10
SF-539 = system: SF-539
EKVX = system: EKVX
LOX IMVI = system: LOX IMVI
786-0 = system: 786-0
UACC-257 = system: UACC-257
A549 = system: A549
SW-620 = system: SW-620

Measured: GI50

O=C1C[C@H](c2ccccc2)C2(C(=O)c3ccccc3C2=O)[C@@H](c2ccccc2)C1
inactive: CAKI-1 7.59 µM | KM12 > 10 µM | SNB-75 28.4 µM | UACC-62 11.8 µM | NCI-H460 25.8 µM | MDA-MB-231 20.7 µM | OVCAR-3 26.9 µM | A498 7.64 µM | NCI-H226 24.9 µM | M14 6.24 µM | HCC 2998 23.3 µM | SN12C 24.2 µM | Malme-3M 36.7 µM | SK-OV-3 21.2 µM | SNB-19 23.9 µM | Hs-578T 17.1 µM | HT-29 26.4 µM | MCF7 37.2 µM | COLO 205 18.4 µM | NCI-H23 32.5 µM | U-251 31.5 µM | NCI/ADR-RES 23.2 µM | UO-31 33.3 µM | PC-3 10.8 µM | HOP-92 13.6 µM | MOLT-4 8.87 µM | SK-MEL-2 12.8 µM | RXF 393 6.04 µM | T47D 43.1 µM | SK-MEL-28 19 µM | DU-145 48.6 µM | CCRF-CEM 9.55 µM | OVCAR-5 42.2 µM | NCI-H522 30.2 µM | SF-295 25.6 µM | SR 92.7 µM | RPMI-8226 > 100 µM | HOP-62 38.5 µM | MDA-MB-435 > 10 µM | HL-60 73.1 µM | MDA-N 16.2 µM | K562 9.86 µM | SK-MEL-5 16.9 µM | IGROV-1 16.3 µM | OVCAR-8 35.6 µM | BT-549 19.6 µM | OVCAR-4 14.4 µM
25.3 µM: HCT-15

C/C(=N\N=C(\N)SB(F)F)c1ccc2ccccc2c1
95.5 µM: HCT-15
inactive: CAKI-1 > 100 µM | KM12 > 100 µM | SNB-75 > 100 µM | UACC-62 > 100 µM | NCI-H460 > 100 µM | MDA-MB-231 > 100 µM | A498 > 100 µM | NCI-H226 > 100 µM | M14 > 100 µM | SF-268 86.5 µM | HCC 2998 > 100 µM | ACHN > 100 µM | SN12C > 100 µM | Malme-3M > 100 µM | SK-OV-3 > 100 µM | SNB-19 > 100 µM | HCT-116 > 100 µM | Hs-578T > 100 µM | HT-29 > 100 µM | MCF7 87.7 µM | COLO 205 > 100 µM | NCI-H23 > 100 µM | U-251 > 100 µM | NCI/ADR-RES > 100 µM | UO-31 > 100 µM | PC-3 > 100 µM | TK-10 > 100 µM | HOP-92 > 100 µM | SK-MEL-2 > 100 µM | RXF 393 62.8 µM | T47D > 100 µM | SK-MEL-28 > 100 µM | DU-145 > 100 µM | SF-539 > 100 µM | CCRF-CEM 4.37 µM | EKVX > 100 µM | LOX IMVI 56.4 µM | OVCAR-5 > 100 µM | 786-0 > 100 µM | UACC-257 > 100 µM | NCI-H522 25.6 µM | SF-295 > 100 µM | SR 54.5 µM | MDA-MB-435 > 100 µM | MDA-N > 100 µM | K562 > 100 µM | SK-MEL-5 > 100 µM | A549 > 100 µM | IGROV-1 > 100 µM | SW-620 71.8 µM | OVCAR-8 > 100 µM | BT-549 > 100 µM | OVCAR-4 > 100 µM
